Source: the NIST ThermoML archive (doi:10.1021/je500420g)
± gives the expanded uncertainty stated by the source.

Experiment: xn = mol fraction of the nth substance listed
Details: 100 kPa, Liquid, Vibrating tube method

SMILES | mass density (293.15 K, x1 = 0.01) | mass density (293.15 K, x1 = 0.03) | mass density (293.15 K, x1 = 0.05) | mass density (303.15 K, x1 = 0.01) | mass density (303.15 K, x1 = 0.03) | mass density (303.15 K, x1 = 0.05) | mass density (313.15 K, x1 = 0.01) | mass density (313.15 K, x1 = 0.03) | mass density (313.15 K, x1 = 0.05) | mass density (323.15 K, x1 = 0.01) | mass density (323.15 K, x1 = 0.03) | mass density (323.15 K, x1 = 0.05) | mass density (333.15 K, x1 = 0.01) | mass density (333.15 K, x1 = 0.03) | mass density (333.15 K, x1 = 0.05)
[I-].[Rb+] [rubidium iodide (RbI)] + O | 1088.1 ± 0.2 kg/m3 | 1259.7 ± 0.4 kg/m3 | 1423.2 ± 0.5 kg/m3 | 1084.2 ± 0.2 kg/m3 | 1254.2 ± 0.4 kg/m3 | 1416.3 ± 0.5 kg/m3 | 1079.8 ± 0.2 kg/m3 | 1248.4 ± 0.4 kg/m3 | 1409.2 ± 0.5 kg/m3 | 1074.9 ± 0.3 kg/m3 | 1242.3 ± 0.4 kg/m3 | 1402 ± 0.5 kg/m3 | 1069.6 ± 0.3 kg/m3 | 1235.9 ± 0.4 kg/m3 | 1394.6 ± 0.5 kg/m3
[Br-].[Na+] [sodium bromide] + O | 1043.6 ± 0.2 kg/m3 | 1129.5 ± 0.3 kg/m3 | 1217.1 ± 0.3 kg/m3 | 1040 ± 0.2 kg/m3 | 1125.2 ± 0.3 kg/m3 | 1211.8 ± 0.3 kg/m3 | 1035.8 ± 0.2 kg/m3 | 1120.4 ± 0.3 kg/m3 | 1206.2 ± 0.3 kg/m3 | 1031.1 ± 0.2 kg/m3 | 1115.1 ± 0.3 kg/m3 | 1200.2 ± 0.3 kg/m3 | 1026 ± 0.2 kg/m3 | 1109.4 ± 0.3 kg/m3 | 1194 ± 0.3 kg/m3
[Cl-].[Na+] [sodium chloride] + O | 1021.3 ± 0.2 kg/m3 | 1066.2 ± 0.2 kg/m3 | 1110.8 ± 0.3 kg/m3 | 1018.3 ± 0.2 kg/m3 | 1062.4 ± 0.2 kg/m3 | 1106.2 ± 0.3 kg/m3 | – | 1058 ± 0.2 kg/m3 | 1101.6 ± 0.3 kg/m3 | 1010.1 ± 0.2 kg/m3 | 1052.4 ± 0.2 kg/m3 | 1096.4 ± 0.3 kg/m3 | 1005.1 ± 0.2 kg/m3 | 1047.6 ± 0.2 kg/m3 | 1090.9 ± 0.3 kg/m3

The next lines start with the values.

mass density (293.15 K, x1 = 0.01) | mass density (293.15 K, x1 = 0.03) | mass density (293.15 K, x1 = 0.05) | mass density (303.15 K, x1 = 0.01) | mass density (303.15 K, x1 = 0.03) | mass density (303.15 K, x1 = 0.05) | mass density (313.15 K, x1 = 0.01) | mass density (313.15 K, x1 = 0.03) | mass density (313.15 K, x1 = 0.05) | mass density (323.15 K, x1 = 0.01) | mass density (323.15 K, x1 = 0.03) | mass density (323.15 K, x1 = 0.05) | mass density (333.15 K, x1 = 0.01) | mass density (333.15 K, x1 = 0.03) | mass density (333.15 K, x1 = 0.05) | SMILES
1048.7 ± 0.2 kg/m3 | 1150.6 ± 0.3 kg/m3 | 1250.3 ± 0.4 kg/m3 | 1045.7 ± 0.2 kg/m3 | 1146.5 ± 0.3 kg/m3 | 1246.1 ± 0.4 kg/m3 | 1042 ± 0.2 kg/m3 | 1141.9 ± 0.3 kg/m3 | 1241.4 ± 0.4 kg/m3 | 1037.6 ± 0.2 kg/m3 | 1137 ± 0.3 kg/m3 | 1236.2 ± 0.4 kg/m3 | 1032.6 ± 0.2 kg/m3 | 1131.6 ± 0.3 kg/m3 | 1230.6 ± 0.4 kg/m3 | [F-].[Rb+] [rubidium fluoride (RbF)] + O
1022.7 ± 0.2 kg/m3 | – | – | 1019.7 ± 0.2 kg/m3 | – | – | 1016 ± 0.2 kg/m3 | – | – | 1011.5 ± 0.2 kg/m3 | – | – | 1006.5 ± 0.2 kg/m3 | – | – | [F-].[Na+] [sodium fluoride] + O
1061.7 ± 0.2 kg/m3 | 1186.7 ± 0.3 kg/m3 | 1309.5 ± 0.4 kg/m3 | 1058.4 ± 0.2 kg/m3 | 1181.8 ± 0.3 kg/m3 | 1303.2 ± 0.4 kg/m3 | 1054.2 ± 0.2 kg/m3 | 1176.3 ± 0.3 kg/m3 | 1296.5 ± 0.4 kg/m3 | 1049.5 ± 0.2 kg/m3 | 1169.1 ± 0.3 kg/m3 | 1289.5 ± 0.4 kg/m3 | 1044.1 ± 0.2 kg/m3 | 1163.4 ± 0.3 kg/m3 | 1282.2 ± 0.4 kg/m3 | [I-].[Na+] [sodium iodide] + O
